Data: paper PMC6642608, “Putative trehalose biosynthesis proteins function as differential floridoside-6-phosphate synthases to participate in the abiotic stress response in the red alga Pyropia haitanensis” (BMC Plant Biology, 2019)

Legend:
Experiment in all cases: HPLC-MS of products after alkaline phosphatase
Format in all cases: biochemical
Details in all cases: 100 mM UDP-galactose, 10 mM MgSO4, pH 8.0 protein buffer, 30 °C, 16 h
PhTPS4 = molecular target: T1, PhTPS4 (Pyropia haitanensis, UniProt U3GP00)
T1 construct: E. coli BL21, pET-28a or pET-28a-sumo, His tag, sumo-His tag cut before assay; full-length ORF 1008 aa with N-terminal CBM20
T1 sequence (U3GP00 entry or part of it): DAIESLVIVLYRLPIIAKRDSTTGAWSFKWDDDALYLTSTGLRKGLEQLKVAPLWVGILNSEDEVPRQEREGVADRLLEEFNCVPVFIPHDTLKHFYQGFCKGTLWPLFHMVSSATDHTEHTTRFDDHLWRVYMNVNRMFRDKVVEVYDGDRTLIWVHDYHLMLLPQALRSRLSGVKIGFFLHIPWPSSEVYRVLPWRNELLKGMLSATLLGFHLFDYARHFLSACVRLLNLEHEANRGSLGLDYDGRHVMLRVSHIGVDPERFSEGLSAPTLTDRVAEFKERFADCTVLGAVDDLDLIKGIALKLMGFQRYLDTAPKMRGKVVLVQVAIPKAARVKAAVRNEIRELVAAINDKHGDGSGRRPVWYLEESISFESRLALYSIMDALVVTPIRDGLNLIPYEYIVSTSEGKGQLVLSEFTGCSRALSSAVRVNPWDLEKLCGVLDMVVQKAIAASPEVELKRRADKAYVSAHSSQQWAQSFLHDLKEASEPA

PhTPS3 = molecular target: T2, PhTPS3 (Pyropia haitanensis, UniProt A0A0A7PA46)
T2 construct: E. coli BL21, pET-28a or pET-28a-sumo, His tag, sumo-His tag cut before assay; full-length ORF 1108 aa
T2 sequence (A0A0A7PA46 entry or part of it): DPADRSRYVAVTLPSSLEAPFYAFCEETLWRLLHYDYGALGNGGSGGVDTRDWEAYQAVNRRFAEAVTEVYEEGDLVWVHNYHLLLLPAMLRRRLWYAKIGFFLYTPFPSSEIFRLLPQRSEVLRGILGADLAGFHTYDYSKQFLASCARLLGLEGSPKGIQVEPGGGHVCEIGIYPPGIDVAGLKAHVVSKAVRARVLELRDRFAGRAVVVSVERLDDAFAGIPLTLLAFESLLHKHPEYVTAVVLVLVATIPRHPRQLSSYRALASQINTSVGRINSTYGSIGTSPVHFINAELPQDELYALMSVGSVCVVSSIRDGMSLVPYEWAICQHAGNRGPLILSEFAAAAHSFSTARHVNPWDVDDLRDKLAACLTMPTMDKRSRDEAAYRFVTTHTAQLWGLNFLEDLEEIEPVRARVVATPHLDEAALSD

PhTPS1 = molecular target: T3, PhTPS1 (Pyropia haitanensis, UniProt T1UQ24)
T3 construct: E. coli BL21, pET-28a or pET-28a-sumo, His tag, sumo-His tag cut before assay; full-length ORF 1154 aa
T3 sequence (T1UQ24 entry or part of it): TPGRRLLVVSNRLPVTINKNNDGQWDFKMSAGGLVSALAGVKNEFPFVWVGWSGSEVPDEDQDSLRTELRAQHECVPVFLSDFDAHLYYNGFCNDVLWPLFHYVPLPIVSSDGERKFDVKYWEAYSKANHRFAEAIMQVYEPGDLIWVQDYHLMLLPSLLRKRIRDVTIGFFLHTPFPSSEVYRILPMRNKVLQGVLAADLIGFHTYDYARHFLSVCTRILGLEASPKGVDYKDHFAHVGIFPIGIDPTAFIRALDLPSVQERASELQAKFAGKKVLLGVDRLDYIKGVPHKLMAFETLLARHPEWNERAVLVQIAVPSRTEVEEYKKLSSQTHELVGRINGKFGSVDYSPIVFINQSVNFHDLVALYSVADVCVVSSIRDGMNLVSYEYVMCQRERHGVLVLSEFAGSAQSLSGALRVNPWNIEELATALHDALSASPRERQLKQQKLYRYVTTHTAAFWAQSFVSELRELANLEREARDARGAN

O=P(O)(O)OC[C@H](O)CO [G3P]
HPLC-MS of products after alkaline phosphatase (PhTPS4): UDP-Gal and G3P were allowed to react with them | HPLC-MS of products after alkaline phosphatase (PhTPS3): UDP-Gal and G3P were allowed to react with them | HPLC-MS of products after alkaline phosphatase (PhTPS1): UDP-Gal and G3P were allowed to react with them
